One assay concerns IL-1β. Kind of assay: LPS-stimulated IL-1β release in hPBMCs (ELISA). It is filed as cell-based. The note with it: Homo sapiens; LPS-stimulated hPBMC. On the procedure:
(§1) Primary screening—Human peripheral blood mononuclear cells (hPBMCs). TNF-α production by lipopolysaccharides (LPS) in hPBMCs was measured according to the method described by Jansky, L. et al (Physiol. Res. 52: 593-598, (2003)). Blood was collected from healthy donors into Potassium EDTA vacutainer tubes (BD vacutainer). The PBMCs were isolated using gradient centrifugation in Histopaque-1077 solution (Sigma). Isolated PBMCs were suspended in RPMI 1640 culture medium (Gibco BRL, Pasley, UK) containing 10% fetal bovine serum (FBS) (Hyclone, Utah, USA), 100 U/ml penicillin (Sigma Chemical Co. St Louis, Mo.) and 100 μg/ml streptomycin (Sigma Chemical Co. St Louis, Mo.). The cell concentration was adjusted to 1×10^6 cells/ml. The viability as determined by trypan blue dye exclusion was uniformly ≧98%. […] The % inhibition was recorded. Percent cytotoxicity of the test samples compared to control was evaluated.
(§2) The effect of the plant extract on the proinflammatory cytokines: TNF-α, interleukin-1β (IL-1β), interleukin-6 (IL-6) and interleukin-8 (IL-8) was measured using the supernatants generated in the primary screening assay. […]
(§3) The effect of the Compound 1, on the proinflammatory cytokines: TNF-α interleukin-1β (IL-1β), interleukin-6 (IL-6) and interleukin-8 (IL-8) was measured using the supernatants generated in the primary screening assay. […]
On the technique in general: An ELISA detects its analyte on a solid surface through an enzyme-linked reagent.

The test system of a further assay is IL-8. Kind of assay: LPS-stimulated IL-8 release in hPBMCs (ELISA). The note with it: Homo sapiens; LPS-stimulated hPBMC. In kind it is cell-based. On the procedure:
as §1, §2, §3

The subject of another assay is E-Selectin. Kind of assay: Cell-ELISA for adhesion molecule expression in HUVECs: E-Selectin. It is filed as cell-based. The note with it: Homo sapiens; TNF-α-induced surface expression, HUVEC. On the procedure: The assay was designed on the basis of reference Transplantation, Vol 63(5), 759-764, 1997 with modifications.
Human Umbilical Vein Endothelial Cells (HUVECs) were obtained from Cascade Biologics and were maintained in M200 (Cascade Biologics, Portland, Oreg.) supplemented with low serum growth supplement (LSGS) at 37° C. in a 5% CO2 incubator. U937 cells (ATCC, Manassas, Va.) were grown in the RPMI 1640 medium supplemented with 10% FBS (Hyclone, Logan, Utah). Recombinant human TNFα, antibodies to VCAM-1, ICAM-1, E-Selectin were obtained from R&D Systems and LPS was obtained from Sigma (St. Louis, Mo.).
HUVECs were plated at […] in 96-well fibronectin-coated plates. The cells were stimulated with TNF-α (10 ng/ml) or LPS (1 μg/ml), 30 min after addition of test compound. After stimulation, cells (E-Selectin and ICAM-1) were fixed with paraformaldehyde in phosphate buffer saline (PBS). Non specific binding was blocked by 2% bovine serum albumin (BSA) in phosphate buffer saline (PBS) for 1 h, and the cells were incubated with primary antibody for 2 h. […] After washing, seven times, 3,3′5,5′-tetramethylbenzidine liquid substrate (TMB substrate) was added and the optical density of each well was determined at 450 nm using a microtitre plate reader (Spectramax, Molecular Devices, Calif.). […] Percent inhibition of the test sample compared to the control is evaluated. […]

For assay [1], the system named is THP-1 cell adhesion to HUVECs. As to the kind of experiment: Adhesion of THP-1 mononuclear cells to HUVEC monolayers. In kind it is cell-based, human. The following applies: for Fluorescence Intensity: TNF-α 1 ng/ml; for Fold of control: unstimulated DMSO control = 1, stimulated = 18. On the procedure: Adhesion studies were performed with the promonocytic cell line THP-1, which has been established as a useful model for monocytes in adhesion studies in Circ. Res., 97, 236-243, 2005, with modifications. THP-1 cells were washed twice with labeling medium (M200 plus LSGS). THP-1 cells (6×10^5 cells per ml) were labeled with 10 μg/ml bis-carboxyethyl-carboxyfluorescein acetoxymethylester (a fluorescent probe, BCECF-AM; Sigma) for 30 min at RT. After quenching with 0.1% BSA, the pellet was resuspended in labeling medium. To evaluate monocyte adhesion, HUVEC monolayers treated with TNF-α (1 ng/ml) in the presence or absence of various concentrations of test sample. The media was removed, washed and labeled-THP-1-cells were added to the wells (6×10^4 cells per well) and incubated for 10 minutes at RT in the dark. After co incubation, the wells were washed, filled with lysis buffer (0.1% Triton-X in 1.5 M Tris buffer) and incubated for 30 min. The fluorescence was measured using a fluorescent reader (PolarStar Optima, BMG Labtech) at an excitation peak of 485 nm and an emission peak of 520 nm. Values are means±SEM, representing fluorescent adhesion data. BAY 11-7082 [(E)-3-(4-methylphenylsulfonyl)-2-propenenitrile] was used as a standard and DMSO as vehicle control.

What is called IC50 is the concentration at which inhibition is half-maximal. A high value points to weaker potency in that assay. As for `C=C1C(=O)OC2C3=C(C)CCCC3(C)CCC12O` (stereo not drawn) [Compound 1, 3a-hydroxy-5a,9-dimethyl-3-methylene-3a,4,5,5a,6,7,8,9b-octahydro-3H-naphtho[1,2-b]furan-2-one], the IC50 with IL-1β is 400 nM; in the assay with IL-8, 8900 nM; with E-Selectin it was 200 nM. Besides, the “Fluorescence Intensity” value was found to be 33421 in assay [1] (0.1 μM), 34024 in assay [1] (0.3 μM), 10195 in assay [1] (1 μM) and 5728 in assay [1] (3 μM). Further, the Fold of control in assay [1] (0.1 μM) was 13; in assay [1] (0.3 μM), 13; in assay [1] (1 μM) it was 4; in assay [1] (3 μM), 2. For the same compound, the “TNF-α stimulated monocytic THP-1 cell adhesion to HUVECs” value in assay [1] (at 1 μM) is “inhibited”.

(Values after patent publication US8206756B2, “Herbal composition for inflammatory disorders” (Piramal Life Sciences Limited, priority 2005, dated 2012).)
